What was measured:
[1] = molecular target: T1, Serine/threonine-protein kinase NLK (Homo sapiens) (UniProt Q9UBE8); test: Selectivity interaction (KinomeScan (DiscoverX)) EUB0001868a NLK; conditions: at 1 µM
T1 sequence (whole entry): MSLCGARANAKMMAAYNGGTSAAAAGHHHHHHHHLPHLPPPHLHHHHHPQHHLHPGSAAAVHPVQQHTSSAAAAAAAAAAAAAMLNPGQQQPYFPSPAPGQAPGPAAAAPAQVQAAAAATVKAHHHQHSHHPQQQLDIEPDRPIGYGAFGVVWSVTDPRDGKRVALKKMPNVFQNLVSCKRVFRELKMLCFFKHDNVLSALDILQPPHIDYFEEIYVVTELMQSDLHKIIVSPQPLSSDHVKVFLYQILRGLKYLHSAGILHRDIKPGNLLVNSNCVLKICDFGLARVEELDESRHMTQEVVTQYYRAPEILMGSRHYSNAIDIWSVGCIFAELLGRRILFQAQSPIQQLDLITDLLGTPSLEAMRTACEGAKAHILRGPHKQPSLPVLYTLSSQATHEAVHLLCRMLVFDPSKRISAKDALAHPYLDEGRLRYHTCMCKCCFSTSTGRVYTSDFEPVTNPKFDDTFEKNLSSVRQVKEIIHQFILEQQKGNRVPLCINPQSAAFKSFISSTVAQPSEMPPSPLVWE

[2] = molecular target: Tyrosine-protein kinase HCK (Homo sapiens) (UniProt P08631); test: Selectivity interaction (Ambit KINOMEscan and KiNATiv profiling in Jurkat cells) EUB0000090b HCK; type: cell-based; conditions: at 1 µM
Chain of Tyrosine-protein kinase HCK (Homo sapiens) (P08631 2-526 limits assumed): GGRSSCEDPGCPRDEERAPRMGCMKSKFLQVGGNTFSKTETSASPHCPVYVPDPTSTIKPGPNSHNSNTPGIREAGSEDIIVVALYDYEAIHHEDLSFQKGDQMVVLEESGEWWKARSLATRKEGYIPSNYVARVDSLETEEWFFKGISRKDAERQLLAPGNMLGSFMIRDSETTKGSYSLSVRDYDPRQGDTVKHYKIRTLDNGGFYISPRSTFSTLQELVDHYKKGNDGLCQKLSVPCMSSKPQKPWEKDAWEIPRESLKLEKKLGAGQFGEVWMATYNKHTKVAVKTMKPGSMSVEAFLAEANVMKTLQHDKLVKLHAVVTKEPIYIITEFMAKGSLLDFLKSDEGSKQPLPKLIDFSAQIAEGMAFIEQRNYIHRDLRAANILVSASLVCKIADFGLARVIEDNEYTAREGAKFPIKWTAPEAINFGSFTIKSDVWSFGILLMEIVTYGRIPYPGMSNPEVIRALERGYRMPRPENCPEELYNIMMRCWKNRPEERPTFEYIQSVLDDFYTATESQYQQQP

[3] = molecular target: T2, Activin receptor type-1B (Homo sapiens) (UniProt P36896); test: Selectivity interaction (Kinase panel (Invitrogen)) EUB0000639a ACVR1B; conditions: at 200 nM
T2 sequence (whole entry): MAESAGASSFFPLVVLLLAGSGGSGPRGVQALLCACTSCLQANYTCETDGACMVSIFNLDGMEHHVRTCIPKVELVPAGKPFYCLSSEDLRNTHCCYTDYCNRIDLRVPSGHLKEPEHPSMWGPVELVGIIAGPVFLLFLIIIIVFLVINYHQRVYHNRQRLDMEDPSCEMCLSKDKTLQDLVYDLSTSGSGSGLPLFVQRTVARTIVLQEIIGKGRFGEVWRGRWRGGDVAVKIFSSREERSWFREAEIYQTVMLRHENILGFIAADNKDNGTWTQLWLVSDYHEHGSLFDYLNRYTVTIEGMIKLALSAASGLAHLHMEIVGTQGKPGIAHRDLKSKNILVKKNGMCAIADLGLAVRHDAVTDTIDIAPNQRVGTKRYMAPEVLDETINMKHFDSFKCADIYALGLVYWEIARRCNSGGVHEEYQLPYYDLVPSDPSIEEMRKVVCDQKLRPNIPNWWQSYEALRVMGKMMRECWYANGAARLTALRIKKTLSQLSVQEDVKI

[4] = molecular target: T3, Mitogen-activated protein kinase kinase kinase kinase 2 (Homo sapiens) (UniProt Q12851); test: Selectivity interaction (Kinase panel (Z-LYTE Assay)) EUB0001632a MAP4K2; conditions: at 10 µM
T3 sequence (whole entry): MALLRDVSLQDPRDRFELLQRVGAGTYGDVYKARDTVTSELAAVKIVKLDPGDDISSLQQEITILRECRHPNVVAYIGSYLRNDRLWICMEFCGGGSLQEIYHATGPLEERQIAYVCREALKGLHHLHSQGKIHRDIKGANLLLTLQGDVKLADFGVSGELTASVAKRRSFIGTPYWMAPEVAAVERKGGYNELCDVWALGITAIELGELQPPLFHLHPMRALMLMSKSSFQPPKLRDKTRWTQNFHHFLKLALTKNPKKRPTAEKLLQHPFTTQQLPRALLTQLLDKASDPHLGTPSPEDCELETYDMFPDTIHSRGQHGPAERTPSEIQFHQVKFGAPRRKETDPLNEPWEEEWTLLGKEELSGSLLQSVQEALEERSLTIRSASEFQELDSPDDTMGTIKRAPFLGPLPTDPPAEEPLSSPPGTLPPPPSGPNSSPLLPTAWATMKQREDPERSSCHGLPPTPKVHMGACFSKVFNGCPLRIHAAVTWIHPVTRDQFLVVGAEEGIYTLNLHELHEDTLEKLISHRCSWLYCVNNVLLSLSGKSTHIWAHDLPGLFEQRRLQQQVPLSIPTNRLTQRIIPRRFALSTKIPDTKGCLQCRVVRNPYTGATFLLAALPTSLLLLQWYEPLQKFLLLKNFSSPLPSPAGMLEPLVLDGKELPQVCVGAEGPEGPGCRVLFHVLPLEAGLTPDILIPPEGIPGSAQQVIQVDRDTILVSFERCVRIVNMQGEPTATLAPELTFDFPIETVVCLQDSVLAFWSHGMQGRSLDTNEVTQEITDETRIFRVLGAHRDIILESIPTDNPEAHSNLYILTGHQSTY

[5] = molecular target: Phosphatidylinositol 4-phosphate 3-kinase C2 domain-containing subunit beta (Homo sapiens) (UniProt O00750); test: Selectivity interaction (KinomeScan (DiscoverX)) EUB0000695a PIK3C2B; conditions: at 100 nM
Chain of Phosphatidylinositol 4-phosphate 3-kinase C2 domain-containing subunit beta (Homo sapiens) (O00750 whole entry, the tested form may be a part): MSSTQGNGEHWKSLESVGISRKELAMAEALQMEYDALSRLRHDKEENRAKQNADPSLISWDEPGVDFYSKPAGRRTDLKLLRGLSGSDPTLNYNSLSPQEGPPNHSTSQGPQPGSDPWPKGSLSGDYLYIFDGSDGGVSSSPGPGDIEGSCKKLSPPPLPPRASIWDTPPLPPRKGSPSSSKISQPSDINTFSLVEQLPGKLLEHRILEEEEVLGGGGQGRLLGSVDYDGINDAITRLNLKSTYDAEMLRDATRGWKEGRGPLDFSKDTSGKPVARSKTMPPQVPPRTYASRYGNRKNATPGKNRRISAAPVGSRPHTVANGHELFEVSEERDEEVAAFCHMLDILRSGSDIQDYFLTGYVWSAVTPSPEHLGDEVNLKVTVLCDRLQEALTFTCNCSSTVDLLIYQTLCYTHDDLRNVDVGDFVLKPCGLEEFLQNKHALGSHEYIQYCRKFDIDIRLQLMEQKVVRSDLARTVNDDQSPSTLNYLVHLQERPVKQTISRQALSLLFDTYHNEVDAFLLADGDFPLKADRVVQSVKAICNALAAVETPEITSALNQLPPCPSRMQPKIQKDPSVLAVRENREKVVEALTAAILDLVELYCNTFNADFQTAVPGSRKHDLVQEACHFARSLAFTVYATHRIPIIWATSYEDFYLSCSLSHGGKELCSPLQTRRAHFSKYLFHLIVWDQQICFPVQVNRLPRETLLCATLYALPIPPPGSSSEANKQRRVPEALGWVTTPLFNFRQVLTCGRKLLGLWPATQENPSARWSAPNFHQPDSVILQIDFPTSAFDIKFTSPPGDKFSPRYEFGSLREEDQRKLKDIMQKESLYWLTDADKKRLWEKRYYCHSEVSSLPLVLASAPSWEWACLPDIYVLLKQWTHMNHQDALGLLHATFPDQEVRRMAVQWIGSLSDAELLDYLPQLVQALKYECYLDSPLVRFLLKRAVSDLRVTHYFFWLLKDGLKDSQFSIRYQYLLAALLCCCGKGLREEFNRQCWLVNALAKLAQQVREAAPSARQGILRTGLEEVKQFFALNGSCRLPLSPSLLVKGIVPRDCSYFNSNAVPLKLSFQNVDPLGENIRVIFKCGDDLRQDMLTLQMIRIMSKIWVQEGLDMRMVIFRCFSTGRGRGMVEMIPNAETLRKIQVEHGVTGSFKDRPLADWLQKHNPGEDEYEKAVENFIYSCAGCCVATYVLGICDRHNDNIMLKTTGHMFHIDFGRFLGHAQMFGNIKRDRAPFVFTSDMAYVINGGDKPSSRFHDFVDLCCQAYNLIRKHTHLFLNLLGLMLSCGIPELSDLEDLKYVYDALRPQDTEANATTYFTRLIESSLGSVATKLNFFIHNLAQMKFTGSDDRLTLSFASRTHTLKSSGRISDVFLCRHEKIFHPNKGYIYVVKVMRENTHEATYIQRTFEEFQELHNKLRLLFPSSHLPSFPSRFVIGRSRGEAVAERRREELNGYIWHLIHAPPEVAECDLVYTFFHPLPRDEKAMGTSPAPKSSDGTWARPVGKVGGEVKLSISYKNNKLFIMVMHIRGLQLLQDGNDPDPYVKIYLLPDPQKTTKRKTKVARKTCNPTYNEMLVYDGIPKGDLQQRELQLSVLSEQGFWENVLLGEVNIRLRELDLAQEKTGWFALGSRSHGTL

[6] = molecular target: T4, Interleukin-1 receptor-associated kinase 3 (Homo sapiens) (UniProt Q9Y616); test: Selectivity interaction (KinomeScan (DiscoverX)) EUB0000666a IRAK3; conditions: at 10 µM
T4 sequence (whole entry): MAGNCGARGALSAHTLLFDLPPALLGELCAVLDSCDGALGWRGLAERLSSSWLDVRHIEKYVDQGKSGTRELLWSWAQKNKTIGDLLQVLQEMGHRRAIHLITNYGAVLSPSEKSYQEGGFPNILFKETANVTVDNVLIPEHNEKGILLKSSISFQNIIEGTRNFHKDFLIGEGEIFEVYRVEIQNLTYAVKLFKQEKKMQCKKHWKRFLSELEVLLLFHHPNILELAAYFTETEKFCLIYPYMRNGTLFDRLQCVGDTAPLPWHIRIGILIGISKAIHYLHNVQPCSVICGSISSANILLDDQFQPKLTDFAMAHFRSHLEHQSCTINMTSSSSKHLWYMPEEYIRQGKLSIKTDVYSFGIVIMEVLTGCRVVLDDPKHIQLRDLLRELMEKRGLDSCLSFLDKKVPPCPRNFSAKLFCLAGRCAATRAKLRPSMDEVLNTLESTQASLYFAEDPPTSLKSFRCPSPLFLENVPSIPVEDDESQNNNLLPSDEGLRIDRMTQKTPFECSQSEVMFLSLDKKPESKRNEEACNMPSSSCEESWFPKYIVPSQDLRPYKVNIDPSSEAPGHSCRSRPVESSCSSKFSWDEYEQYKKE

Compound: Cc1cc(-c2ccnc(Nc3cnn(C)c3)n2)ccc1CNC(=O)N1CC(OC(C)C)C1
- % of control [1]: 46%

Compound: CN(C)C/C=C/C(=O)Nc1ccc(C(=O)N2CCCC(Nc3ncc(Cl)c(-c4c[nH]c5ccccc45)n3)C2)cc1 (stereo unspecified)
- % of control [2]: 83%

Compound: CC[C@@H]1[C@H](F)C(=O)N[C@@H]1COc1nccc2cc(C(N)=O)c(OC)cc12 [ZIMLOVISERTIB]
- % of inhibition [3]: 2.54%

Compound: Cn1cc(-n2cnc3c(NCc4nc5cc(Cl)c(Cl)cc5[nH]4)nc(N4CCOCC4)nc32)cn1
- % of control [4]: -4.87%

Compound: Cc1cc(F)c(C(=O)Nc2cccc(-c3nncn3C(C)C)n2)cc1-n1cnc(C2CC2)c1
- % of control [5]: 100%

Compound: O=C(NOC[C@H](O)CO)c1ccc(F)c(F)c1Nc1ccc(I)cc1F
- % of control [6]: 100%

Reference: ChEMBL document CHEMBL5465560, “Selectivity Literature for EUbOPEN Chemogenomic Library” (2024)
